For one series, the target named is LRRK2 G2019S (Homo sapiens (Human), UniProt Q5S007, G2019S). Description: LRRK2 G2019S LanthaScreen TR-FRET kinase activity assay. The following applies: 250 pM kinase, 1.3 mM ATP, n≥2 tests. The class given is biochemical. On the procedure:
(§1) LRRK2 kinase activity was measured using a LanthaScreen kinase activity assay available from Invitrogen (Life Technologies Corporation). […] The phosphorylated peptide is recognized by a terbium-labelled phospho-specific anti-LRRKtide antibody (pLRRKtide antibody), obtainable from Life Technologies Corporation) and, subsequently, the phosphorylated LRRKtide can be quantified by the extent of TR-FRET between the terbium donor and fluorescein acceptor.
(§2) As discussed above, this mutation increases the kinase activity relative to the wild type. The kinase reactions were performed in a 20 μL volume in 384-well plates. The kinase reaction buffer consisted of 50 mM Tris pH 8.5, 0.01% BRIJ-35, 10 mM MgCl2, 1 mM EGTA, and 2 mM DTT.
(§3) The mixture was further incubated for 30 minutes at RT. TR-FRET was measured by excitation of the terbium-donor with 340 nm light and subsequent (delay time […]) measurement of terbium and fluorescein emission at 495 nm and 520 nm, respectively, over a time window of […]. The measurement was repeated 30 times for fluorescein and 30 times for terbium emission with a […] between repeats. TR-FRET measurements were performed on a Biotek Synergy plate. The TR-FRET signal was calculated as the emission-ratio at 520 nm over 495 nm.
(§4) Test compound potency (IC50) was estimated by nonlinear regression using the sigmoidal dose-response (variable slope) using Xlfit 4 (IDBS, Guildford, Surrey, UK, model 205). Were the IC50 could not be determined the % inhibition at the highest tested concentration is given by equation 1. Equation (1): y=(A+((B−A)/(1+((C/x)^D)))) (1)
(§5) where y is the normalized TR-TRET ratio measurement for a given concentration of test compound, x is the concentration of test compound, A is the estimated efficacy (% inhibition) at infinite compound dilution, and B is the maximal efficacy (% inhibition). C is the IC50 value and D is the Hill slope coefficient. IC50 estimates were obtained from independent experiment and the logarithmic average was calculated.
For orientation: In TR-FRET formats the signal depends on donor and acceptor labels being close together.

Series [1] is described as follows: Hepatocyte intrinsic clearance assay. The class given is in vitro ADME, Human. The following applies: pooled donor, cryopreserved hepatocytes, pH 7.4; human hepatocytes 1×10^6/mL; 0.05 μM; 2 h at 37° C. On the procedure:
Test compounds (final concentration 0.05 μM, 0.05% organic) were incubated for 2 h at 37° C., with shaking, in supplemented Leibovitz L-15 media (pH 7.4) containing commercially sourced, pooled donor, cryopreserved hepatocytes (final concentration 1×10^6 hepatocytes/mL). The CLint reactions (350 μL) were initiated by addition of test compound. Aliquots (25 μL) were taken at 1, 5, 10, 15, 30, 60, 90 and 120 minutes and then protein crashed with ice-cold acetonitrile containing internal standard (150 μL) then centrifuged (1960 g for 20 minutes at 4° C.). Supernatant was diluted (1:4) with deionized water then analyzed by liquid chromatography (LC)-tandem mass spectrometry (MS/MS).

Series [2] has as its target T1, LRRK2 WT (Homo sapiens (Human), UniProt Q5S007). Description: LRRK2 wild-type LanthaScreen TR-FRET kinase activity assay. The class given is biochemical. The settings on record: 1 nM kinase, 1.3 mM ATP, n≥2 tests. On the procedure: as §1, §2, §3, §4, §5
The target in series [3] is T1, LRRK2 WT. Put plainly: LRRK2 wild-type ADP-Glo kinase assay. The following applies: read-out: LRRK2 WT ADPGlo IC50. The class given is biochemical. On the procedure:
LRRK2 kinase activity was measured using an ADP-Glo kinase assay from Promega Corporation. The assay is a homogeneous luminescence-based assay that measures ADP formed from a kinase reaction. The ADP is converted into ATP, which is used to generate light in a luciferase reaction. The luminescence generated correlates with kinase activity.
The LRRK2 kinase was obtained from Invitrogen (Life Technologies Corporation) and comprises residue 970 to 2527 of the full length human wild-type LRRK2 kinase. The kinase reactions were performed in a 10 μL volume in 384-well plates. The kinase reaction buffer consisted of 50 mM Tris pH 8.5, 0.01% BRIJ-35, 10 mM MgCl2, 1 mM EGTA, and 2 mM DTT.
The reaction mixture (10 μl total volume) was incubated for 3 hours at room temperature (RT, ca. 25° C.), before the reaction was terminated by addition of 10 μl ADP-Glo reagent. The mixture was further incubated for 60 minutes at RT before addition of 20 μl Kinase detection reagent from the ADP-Glo assay kit. Luminescence signal was measure on a BMG Labtech Pherastar FSX multimode microplate reader. The signal integration time was 0.5 s.
Test compound potency (Ki,app) was estimated by nonlinear regression using the tight-binding fit model in GeneData Screener (GeneData AG). In cases where the Ki,app could not be determined, the % inhibition at the highest tested concentration is reported. The tight-binding fit model is given by euquation (2). […] Ki,app is the apparent dissociation constant of the inhibitor. The IC50 can be calculated as given by equation (3). Equation (3): IC50=Ki,app+[E]/2 (3) IC50 estimates were obtained from independent experiment and the logarithmic average was calculated.
On the technique in general: ADP-Glo turns the ADP formed in a reaction into a luminescent signal.

Series [4] in a line: Hepatic microsomal intrinsic clearance assay. In kind it is in vitro ADME. The following applies: pooled liver microsomes, pH 7.4; liver microsomes 0.5 mg/mL; 1 μM; NADPH; 1 hour at 37° C.; LLOQ 0.36 L/h/kg. A digest of the protocol:
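Compounds at 1 μM final were incubated with pooled liver microsomes (0.5 mg/mL) in phosphate buffer pH 7.4 at 37 °C for up to 60 min. Samples taken at 0, 5, 10, 20, 30 and 60 min were quenched with acetonitrile and analysed by LC-MS/MS.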
Background: Liver microsomes are a subcellular fraction often used to study metabolism.

T1 sequence (Q5S007 970-2527): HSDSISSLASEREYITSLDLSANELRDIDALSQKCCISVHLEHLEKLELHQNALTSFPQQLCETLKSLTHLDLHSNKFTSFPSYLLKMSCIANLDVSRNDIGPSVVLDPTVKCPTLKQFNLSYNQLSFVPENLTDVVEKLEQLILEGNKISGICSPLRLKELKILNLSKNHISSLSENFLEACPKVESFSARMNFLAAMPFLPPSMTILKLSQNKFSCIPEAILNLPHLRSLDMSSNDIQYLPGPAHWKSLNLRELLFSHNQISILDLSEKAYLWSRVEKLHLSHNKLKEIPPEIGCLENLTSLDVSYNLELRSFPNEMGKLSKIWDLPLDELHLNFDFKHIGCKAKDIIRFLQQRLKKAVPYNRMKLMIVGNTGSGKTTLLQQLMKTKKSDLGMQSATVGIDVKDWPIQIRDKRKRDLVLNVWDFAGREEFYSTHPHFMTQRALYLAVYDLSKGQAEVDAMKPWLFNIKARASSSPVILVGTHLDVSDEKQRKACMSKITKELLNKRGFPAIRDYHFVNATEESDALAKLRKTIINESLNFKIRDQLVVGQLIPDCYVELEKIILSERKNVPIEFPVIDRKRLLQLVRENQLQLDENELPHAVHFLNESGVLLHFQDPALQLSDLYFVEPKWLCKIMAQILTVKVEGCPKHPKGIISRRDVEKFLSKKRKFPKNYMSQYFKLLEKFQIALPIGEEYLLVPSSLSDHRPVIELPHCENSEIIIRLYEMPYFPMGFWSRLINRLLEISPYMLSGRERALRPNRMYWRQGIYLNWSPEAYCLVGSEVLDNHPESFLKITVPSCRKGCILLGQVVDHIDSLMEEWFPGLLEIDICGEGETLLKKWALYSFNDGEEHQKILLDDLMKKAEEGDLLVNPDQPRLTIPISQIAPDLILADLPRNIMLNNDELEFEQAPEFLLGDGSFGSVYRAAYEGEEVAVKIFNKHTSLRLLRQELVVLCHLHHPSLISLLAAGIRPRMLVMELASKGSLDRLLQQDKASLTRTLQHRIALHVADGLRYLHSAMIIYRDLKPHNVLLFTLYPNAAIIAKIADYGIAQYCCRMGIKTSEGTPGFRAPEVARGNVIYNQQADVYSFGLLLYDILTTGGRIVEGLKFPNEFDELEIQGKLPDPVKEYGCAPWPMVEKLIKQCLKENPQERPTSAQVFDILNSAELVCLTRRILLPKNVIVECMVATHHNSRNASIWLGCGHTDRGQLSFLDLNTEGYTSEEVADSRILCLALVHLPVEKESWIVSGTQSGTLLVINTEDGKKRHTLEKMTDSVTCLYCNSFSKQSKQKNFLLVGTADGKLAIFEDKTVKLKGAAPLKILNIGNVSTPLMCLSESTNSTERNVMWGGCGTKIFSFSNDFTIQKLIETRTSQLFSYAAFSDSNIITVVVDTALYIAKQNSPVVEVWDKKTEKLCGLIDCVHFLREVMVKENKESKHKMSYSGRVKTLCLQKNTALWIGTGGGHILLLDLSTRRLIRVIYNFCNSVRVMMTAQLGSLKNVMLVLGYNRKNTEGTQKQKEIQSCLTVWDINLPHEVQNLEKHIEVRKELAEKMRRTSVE
Chain of LRRK2 G2019S (Q5S007 970-2527 G2019S): as the sequence (Q5S007 970-2527) above, with G1050S counted along it

On to `[2H]C([2H])([2H])Oc1ncccc1-n1nc2c(c1C)Nc1ncc3c(Cl)nn(c3n1)CCCO2` [Example 24, 8-Chloro-2-(2-(methoxy-d3)pyridin-3-yl)-3-methyl-2,4,12,13-tetrahydro-11H-5,7-(azenometheno)dipyrazolo[3,4-b:5′,1′-g][1]oxa[4,6,8]triazacycloundecine], for which the IC50 – broadly, the concentration that gives 50% inhibition – at LRRK2 G2019S turned out to be 0.35 nM; at LRRK2 WT [2], 0.95 nM; on LRRK2 WT [3], 0.49 nM. Also, in series [1], the CLint scaled – broadly, the rate of metabolic loss divided by the concentration – at 0.05 μM is 17.7 mL/min/kg. In addition, in series [4], the CLint scaled at 1 μM is 12.5 mL/min/kg.

Values taken from patent publication US11958865B1, “Leucine-rich repeat kinase 2 (LRRK2) inhibitors” (H. Lundbeck A/S, priority 2022, dated 2024).
